Patent US7419789B2, “Method of inhibiting binding of Dengue virus to a human cell with DC-SIGN blockers” (Institut Pasteur, priority 2002, dated 2008)

System: DEN-1 virus strain FGA/NA d1d
Assay: Inhibition of DC-SIGN-mediated DEN-1 virus infection of THP/DC-SIGN cells, indirect immunofluorescence
Format: cell-based, DEN-1 virus (human monocytic THP/DC-SIGN cells)
Conditions: m.o.i. 5 AP61 FFU/cell
Description: Prior to infection, THP-1/DC/SIGN cells were incubated with either Mab 9D12 (dilution 1:50), Mab BD12.5 (20 μg/ml), Mab 1B10.2.6 (20 μg/ml), EDTA (5 mM), mannan (20 μg/ml), or mock-treated (control). Treated cells were infected with DEN-1 virus strain FGA/NA did (5 AP61 FFU/cell) in the presence of reagents for 2 hrs. Viral antigens were detected by indirect immunofluorescence as described in the legend of FIG. 1. The percentages of infected cells 48 h post-infection are indicated. Values represent the mean of triplicate assays ±SD.
Cells were washed once with RPMI 1640, incubated with highly purified virus in RPMI 1640 supplemented with 0.2% bovine serum albumine (BSA, pH 7.5) (Sigma) for 2 hrs at 37° C. and placed into fresh media supplemented with 2% FCS, 2 mM L-glutamine and antibiotics Peni/Strepto at 37° C. for 40 hrs.
The percentage of cells expressing viral antigen was determined using either DEN-1 virus-specific hyperimmune mouse ascites fluid (HMAF) 9801 (strain Hawaï), WN virus-specific HMAF 0801 (strain IS-98-ST1), or YF virus-specific HMAF. 9803 (strain FNV) with dilution of 1:50, by indirect immunofluorescence as previously described (Desprès et al., J. Virol., 70: 4090, 1996). […]

Compound | infectivity of DEN-1 virus in preincubated THP/DC-SIGN cells (EDTA 5 mM, Mab 20 μg/ml) | reduction of FGA/NA d1d infectivity (20 μg/ml)
O=C(O)CN(CCN(CC(=O)O)CC(=O)O)CC(=O)O [EDTA] | essentially abolished | –
mannan | – | 75%
